Test system: New Zealand albino rabbits
Assay: IOP recovery after hypertonic saline infusion (ocular hypertensive rabbit model)
Type: in vivo
Conditions: 50 µl instilled in eye
Method: 1981, vol 13 pp72-79. New Zealand albino rabbits of either sex were used in the study. A 20 % hypertonic saline solution was infused at the speed of 1 ml […] for 10 minutes through the marginal ear vein with an infusion pump. […] Then the IOP of both eyes were measured with a Tono-Pen XL Tonometer (Mentor, Norwell , MA) at 30 minute and 10 minute intervals before the experiment. At the time of commencement, as well as at 10, 20, 40, 60, and 80 min intervals measurements were taken. Then measurements were repeated at every 30 minute intervals. […] The IOP recovery curve acquired had shifted to the right and below the curve of the controlled group.

## CCN1CCCC1CNC(=O)c1cc(S(N)(=O)=O)ccc1OC (centres unmarked) [Sulpiride]
0.5% drop solution, 20 % hypertonic saline infusion
  IOP recovery time: didn't show a significant ability in decreasing IOP
20% drop solution
  decreasing IOP: it did so when the concentration was raised to 20%
